In PubChem BioAssay AID2305 (GlaxoSmithKline (GSK), 2010) one finds IC50 data, which are given here for 87 compounds.

The test system of the assay is P. falciparum 3D7 growth, pLDH absorbance. As to the kind of experiment: blood-stage malaria parasite growth potency – strain 3D7, dose response (AID 2305).
The compound `Cc1cccc2[nH]c(-c3ccc(-c4ccc(CN5CC(C)OC(C)C5)cc4)cc3)nc12` (configuration not stated) gave an IC50 of 520 nM. Regarding `O=C(Nc1cccc(CN2CCN(C(=O)c3cccc(Cl)c3)CC2)c1)c1ccco1`, the IC50 came out at 440 nM. As for `Cc1cccc2[nH]c(-c3ccc(-c4ccc(CNCc5ccccc5)cc4)cc3)nc12`, the IC50 stood at 510 nM.

`O=C(Nc1ccc(OCc2ccccc2)cc1)c1nc2ccccc2nc1Cl`: the IC50 is 250 nM. As for `COc1ccc2ccccc2c1C=NNc1cc(C)nc2cc(C(F)(F)F)ccc12`, the IC50 was found to be 1040 nM.

On to `COc1cc(Nc2nccc(N3CCC(NC(=O)Nc4cccc(C(C)=O)c4)C3)n2)cc(OC)c1OC` (configuration not stated), for which the IC50 turned out to be 970 nM. In turn, `O=C1CCCN1CCCNCc1cccc(-c2ccc(-c3nc4ccccc4[nH]3)s2)c1` registered an IC50 of 860 nM. Next, `CCn1c(Cc2ccccc2)nnc1Sc1ccc([N+](=O)[O-])c(C#N)c1`: 1010 nM. Turning to `CC(C)(C)c1ccc(CNCCOc2ccc(Nc3nnc(-c4ccc(-c5ncc[nH]5)cc4)o3)c3ccccc23)cc1`, the IC50 is 140 nM. Turning to `COc1ccc(C2CC(c3ccccc3O)=NN2C(=O)c2ccco2)cc1OC` (configuration not stated), the IC50 turned out to be 950 nM. Consider `CCOc1ccc(Nc2ccc3nonc3c2S(=O)(=O)Nc2ccc(OCC)cc2)cc1`, for which the IC50 is 510 nM. `O=C(Nc1cccc(-c2ccc(-c3nc4ccc(F)cc4[nH]3)cc2)c1)c1ccoc1`: the IC50 worked out at 960 nM. Next, `CC1CN(Cc2ccc(C#N)cc2)CCN1c1ccc(NC(=O)c2cccs2)cc1` (configuration not stated): 810 nM; `O=C(Nc1ccc(NC2=NCCN2)cc1)Nc1ccc(NC2=NCCN2)cc1`: 850 nM; `COc1ccc(C(=O)[C@H]2C[C@@H]2CN2CC=C(c3c[nH]c4ccc(OC)nc34)CC2)cc1`: 480 nM.

In turn, `O=C(Nc1cccc(-c2ccc(-c3nc4ccccc4[nH]3)cc2)c1)c1ccncc1` registered an IC50 of 530 nM. `COc1cc(NC(=O)c2c(-c3c(Cl)cccc3Cl)noc2C)c(OC)cc1Cl` displayed an IC50 of 920 nM. For the compound `Cc1nc(N2CCC(C)CC2)c2c3c(sc2n1)CCCC3`, the IC50 worked out at 1060 nM. `CNC(=O)c1cnc(Nc2ccc(N3CCN(C)CC3)cc2)nc1Nc1cccc(OC(C)C)c1` had an IC50 of 150 nM. Next, `CCCCCn1c(Sc2ccc(C#N)c([N+](=O)[O-])c2)nnc1-c1ccc(Cl)cc1`: 1080 nM; `COc1ccc2nccc([C@@H](O)CN3CCC(NCCNc4ccccn4)CC3)c2c1`: 740 nM; `O=C(/C=C/c1ccccc1O)NCCCCCN1CCC(c2c[nH]c3ccccc23)CC1`: 830 nM. The result for `COc1ccc(C(=O)[C@H]2C[C@@H]2CN(C)CCC(O)c2ccc(Cl)c(Cl)c2)cc1` (some centres not stated) reads 870 nM; that for `CCn1c(SCC(=O)Nc2cc(C(F)(F)F)ccc2Cl)nc2ccccc2c1=O`, 400 nM; that for `COc1ccc(C2CC(=O)C3=C(C2)NC(C)=C(C(=O)OC(C)C)C3c2ccccc2F)cc1OC` (configuration not stated), 60 nM.

In the case of `CC(C)CCNc1nc(NCc2ccccc2)c2cc(O)ccc2n1`, the IC50 was 110 nM. Consider `CC(C)Cc1cn(-c2nc(-c3nc4ccccc4[nH]3)cs2)c2cc(Cl)ccc12`, for which the IC50 worked out at 480 nM. The result for `CCc1c(CCNCCCC(C)CCNCCc2ccc(OC)c(OC)c2CC)ccc(OC)c1OC` (configuration not stated) reads 1110 nM; that for `Nc1nc2c(c(=O)[nH]1)-c1cccc(Br)c1CC2`, 700 nM. The compound `COc1cc(NC(=O)N2CCOC(CCN3CCC4(CCc5ccccc54)CC3)(c3ccc(Cl)c(Cl)c3)C2)cc(OC)c1` (configuration not stated) displayed an IC50 of 820 nM. The result for `CN(C)C(=NCCCCCCN=C(NC(N)=NCc1ccc(Cl)c(Cl)c1)N(C)C)NC(N)=NCc1ccc(Cl)c(Cl)c1` reads 300 nM; that for `CCOc1cc(C(C)C)ccc1N1CCN(CCCCNC(=O)c2ccc(NC(=O)c3ccc(Cl)cc3)cc2)CC1`, 420 nM. `CN(C)CCn1cc(C(=O)c2cc(Cl)ccc2O)cc1-c1nc2ccccc2c(=O)[nH]1` had an IC50 of 630 nM. In turn, `O=C(NCCN1CCCC1)c1cc(-c2ccc(Cl)c(O)c2)c(-c2ccncc2)o1` had an IC50 of 1630 nM.

Consider `COC(=O)c1ccc(CC(C)NCC(O)c2cccc(Br)c2)cc1` (configuration not stated), for which the IC50 amounted to 690 nM. In turn, `Clc1ccc(CNc2nc(NCCc3cnc[nH]3)nc(Nc3ccc4c(c3)OCO4)n2)cc1` had an IC50 of 950 nM.

In turn, `N/C(=N\c1cccc(Cc2ccc([N+](=O)[O-])cc2)n1)Nc1ccccc1` showed an IC50 of 950 nM. As to `Cc1[nH]c2ccccc2c1C1=CCN(CCCCC2(C)C(=O)Nc3ccccc32)CC1` (configuration not stated), the IC50 turned out to be 230 nM. Next, `CCN(CCCN1CCCCC1)c1nc(C)cc(Nc2ccc(Cl)cc2)n1`: 840 nM; `CN1CCN(c2cccc(Nc3nccc(NCC(O)c4ccccc4)n3)c2)CC1` (configuration not stated): 720 nM. Consider `c1cc(CN2CCN(c3ccncc3)CC2)cc(-c2ccc(-c3nc4ccccc4[nH]3)cc2)c1`, for which the IC50 was determined as 150 nM. The result for `CCNCc1ccc(-c2cc3ncnc(Nc4ccc(OCc5cccc(F)c5)c(Cl)c4)c3s2)[nH]1` reads 110 nM; that for `N#Cc1ccc(-c2ccc(C(=O)NCCCCN3CCC(c4ccc5c(c4OCC(N)=O)CCCC5)CC3)cc2)cc1`, 980 nM; that for `Cc1cccc2[nH]c(-c3ccc(-c4ccc(CNCc5ccc(S(C)(=O)=O)cc5)cc4)cc3)nc12`, 750 nM. `CCn1c(-c2nonc2N)nc2c(-c3cccc(NC(=O)Nc4cccc(OC)c4)c3)ncc(OCCCN)c21` registered an IC50 of 770 nM. The compound `Cc1cccc2[nH]c(-c3cccc(-c4ccc(CN5CCN(CCO)CC5)cc4)c3)nc12` gave an IC50 of 820 nM. Regarding `Cc1c(C)n(C2CCCCC2)c2ncnc(OC3CCN(CC(=O)NC4CC4)CC3)c12`, the IC50 is 1240 nM. Compound `CC(C)(C)c1ccc(CN2CCC(CNC(=O)c3cc(-c4ccccc4C(F)(F)F)cs3)C2)cc1` (configuration not stated) had an IC50 of 1240 nM. Regarding `Cc1c(C)c2c(c(C)c1O)CC[C@@](C)(C(=O)NC1CCC(CN3CCC(c4c[nH]c5ccccc45)CC3)CC1)O2` (some centres not stated), the IC50 was 960 nM.

In turn, `NC1=NC(c2ccccc2)(c2ccccc2)C(=O)N1CC1CCC1` showed an IC50 of 750 nM. The compound `Nc1ccc2[nH]cc(C3CCN(CC4CCC(NC(=O)/C=C/c5ccccc5Cl)CC4)CC3)c2n1` (configuration not stated) yielded an IC50 of 690 nM. Compound `CC(Cc1ccc(S(=O)(=O)N(C(C)C)C(C)C)cc1)NCC(O)c1cccc(C(F)(F)F)c1` (configuration not stated) came in with an IC50 of 690 nM. For the compound `Cc1cc2nc(-c3ccc(C(=O)NCc4cccc(C(F)(F)F)c4)cc3)[nH]c2cc1C`, the IC50 was determined as 810 nM. As for `O=C(Nc1ccccc1)c1nn(CCCN2CCC(N3CCCC3)CC2)cc1-c1ccc(Cl)c(Cl)c1`, the IC50 was found to be 240 nM. In the case of `COc1ccc(-c2ccc(NC(=O)c3cccc(C#N)c3)cc2)cc1CN1CCC(O)CC1`, the 50% inhibitory concentration (IC50) turned out to be 820 nM. The result for `O=C(NCCNc1ccnc2cc(Cl)ccc12)c1ccccc1F` reads 660 nM; that for `COc1ccc(CNCc2ccc(-c3ccc(-c4nc5ccc(C(F)(F)F)cc5[nH]4)cc3)cc2)cc1`, 130 nM; that for `Fc1ccc(OC2CN(c3nccc(NCc4ccccc4Cl)n3)C2)cc1`, 900 nM. `CC(C)C[C@H](NC(=O)[C@H](Cc1ccccc1)N(C[C@H](Cc1ccccc1)NC(=O)OC(C)(C)C)C(=O)C(F)(F)F)C(=O)NC1CCN(Cc2ccccc2)CC1` gave an IC50 of 530 nM. For the compound `CS(=O)(=O)CCNCc1nc(-c2ccc3c(=O)[nH]cnc3c2)cs1`, the IC50 was 1010 nM. Take `Cc1cc(NC(=O)Nc2ccc(C#N)cc2)c2ccccc2n1`: the IC50 stood at 570 nM. In turn, `COc1cccc(Nc2nccc(-c3c(-c4cccc(NC(=O)c5c(F)cccc5F)c4)nn4ccccc34)n2)c1` yielded an IC50 of 180 nM. Regarding `COc1cc(CCN(C)Cc2ccc(OC)c(OC)c2)ccc1NC(=O)c1cccc2c(=O)c3cccc(F)c3[nH]c12`, the IC50 was found to be 200 nM.

The compound `CCN(CC)CCN(CCN(CC)CC)c1ccc(-c2nc3cc(Cl)c(Cl)cc3[nH]2)cc1` showed an IC50 of 780 nM. On to `Cc1ccccc1C(O)CNc1ccnc(Nc2cccc(C#N)c2)n1` (configuration not stated), for which the IC50 worked out at 880 nM. The compound `COc1ccc(CNc2cc(C)nc3sc4c(c23)CCC2(C4)OCCO2)cc1` came in with an IC50 of 950 nM. Take `COc1cc2nc(N3CCC(CNC(=O)c4ccc(-c5ccc(C(=O)N(C)C)cc5C)cc4)CC3)nc(N3CCN(C)CC3)c2cc1OC`: the IC50 is 1230 nM. In turn, `CC(C)CC1c2[nH]c3ccccc3c(=O)c2CN1C(=O)OC(C)(C)C` (configuration not stated) registered an IC50 of 220 nM. Turning to `COc1cc(CCCOc2c(N)nc(N)nc2N)cc(OC)c1OC`, the IC50 is 1220 nM. With `CS(=O)(=O)Nc1ccc(OCCCCCCOc2ccc(NS(C)(=O)=O)cc2)cc1`, the IC50 turned out to be 490 nM.

As to `C[C@H](Cc1ccc(OCCCCCCOc2ccccc2)cc1)NC[C@H](O)c1cccc(Cl)c1`, the IC50 was determined as 70 nM. The result for `CCc1cc(CNC2CCN(CCc3c(F)cnc4ccc(OC)nc34)CC2)cc2c1OCCO2` reads 260 nM. As to `CN(C)c1cccc(-c2cnc3ccc(NCc4cccc(Cl)c4)nn23)c1`, the IC50 turned out to be 700 nM.

`COc1ccc(-c2cnc3ccc(NCc4ccc(F)cc4)nn23)cc1OC` gave an IC50 of 830 nM. `Cc1nc(N)nc(N)c1CCCOc1ccccc1Br` had an IC50 of 420 nM. Consider `Cc1c(F)cc(C(=O)NC2CC2)cc1-c1ccc2c(c1)c(C)nn2S(=O)(=O)c1cccs1`, for which the IC50 came out at 940 nM. With `c1ccc2c(NCCc3cnc[nH]3)c3ccccc3nc2c1`, the IC50 was 1040 nM. Compound `CS(=O)(=O)c1cccc2sc(N3CCN(C(=O)c4ccc([N+](=O)[O-])o4)CC3)nc12` registered an IC50 of 1240 nM. The result for `CCCN(CCC)CCCN(CCCN(CCC)CCC)c1cc(C)nc(Nc2ccc(Cl)cc2)n1` reads 170 nM. `NCc1cccc(-c2ccccc2CNC2CCN(Cc3ccccc3)CC2)c1` registered an IC50 of 770 nM. The result for `CC(=O)Nc1ccc(OCCN(Cc2ccccc2C(F)(F)F)c2ccc(C#N)c(C(F)(F)F)c2)c(Cl)c1` reads 620 nM; that for `CC(CCCCC(=O)Nc1ccc(CC(C)NCCc2cccc(Cl)c2)cc1)NCCc1cccc(Cl)c1` (configuration not stated), 1010 nM.

For the compound `COCCOc1nc(N)nc2ncc(Cc3cc(OC)ccc3OC)c(C)c12`, the IC50 came to 430 nM. The result for `CCCCCCNCc1c(O)ccc2c(CNCCCCCC)c(O)ccc12` reads 130 nM. `O=S(=O)(c1c(Cl)cccc1Cl)N1CCCCC(c2ccc(C(F)(F)F)cc2)=N1` had an IC50 of 130 nM.

The compound `Fc1ccc(-c2oc(C3CCN(CCc4ccc(-c5nc(=S)o[nH]5)cc4)CC3)nc2COCC(F)(F)F)cc1` gave a 50% inhibitory concentration (IC50) of 420 nM. With `CCCCN1CCCN(Cc2cccc(NC(=O)c3ccc(-c4ccccc4)cc3)c2)CC1`, the IC50 worked out at 1030 nM.
